# Data reported in a melting point compilation (Tetko et al.; mined from patent text by program, amines drawn as free bases though some values may be those of a salt).
row,Compound,melting point
1,O=C(O)C1=C(c2cc(-c3ccccc3)[nH]n2)CCCC1,207 to 209 °C
2,CCOCc1nc2c(N)nc3cc(OCc4ccccc4OC)ccc3c2n1CC(C)C,206 to 207 °C
3,Cc1cccc(NC(=O)CN2CCN(c3ncccn3)CC2)c1,113 to 116 °C
4,CCN(CC)c1ccc(C=O)c(OCCN2CCCCC2)c1,70 to 72 °C
5,CNC(=NO)NCc1ccccc1,97 to 99 °C
6,CC(C)CC(NC(=O)C(NC(=O)OCc1ccccc1)C(C)C)C(=O)NC(CCCCNC(=O)OCc1ccccc1)C(=O)Oc1cccc2ccccc12 (centres undefined),171 to 174 °C
7,CC(C)OC(=O)Nc1cccc2c1C(=O)C1(O)c3ccc(C(C)C)cc3OC21O (centres undefined),200 to 202 °C
8,Cc1c(C(=O)c2ccccc2)cccc1[N+](=O)[O-],42 °C
9,O[C@H]1CCCN[C@H]1c1ccccc1 (relative stereo),93 to 95 °C
10,CCn1ncc2c(C(F)(F)F)cc(=O)[nH]c21,178 to 179 °C
11,CCCCN(Cc1ccc(-c2ccccc2C(=N)NO)cc1)c1ncccc1C(=O)OCC,181 to 182 °C
12,C=Cc1cn(C)c2cc(-c3ccccc3Cl)c3c(c12)C(=O)NC3=O,200 to 205 °C
13,Cc1ccccc1NC(=O)Nc1ccc(C(=O)N2Cc3ccccc3Cc3ccccc32)cc1,188 to 190 °C
14,CCCCCCCCCCCCc1cc(C=O)on1,53 to 54 °C
15,CC(C)(O)c1ccc(CNC(=O)c2cccnc2Oc2ccc(F)cc2)cc1,106 to 108 °C
16,O=C(O)CC/C=C\CC[C@@H]1[C@@H](OCc2ccc(-c3ccccc3)cc2)CO[C@@H]1c1cccnc1,94 to 96 °C
17,Cc1cccc(-c2cccc3c2OC(CN)C3)c1C (centres undefined),> 225 °C
18,Cn1cnnc1C(CCl)(c1ccc(Cl)cc1)c1ccc2c(c1)c(-c1cccc(Cl)c1)cc(=O)n2C (centres undefined),260 °C
19,CC1(C)CCCC=C1c1ccc(C(=O)O)cc1,181 °C
20,Cn1ncc(NCCN2CCC(c3noc4cc(F)ccc34)CC2)cc1=O,200 to 202 °C
21,CN(C)C=Cc1ncc([N+](=O)[O-])n1CCN(C)C,81 to 82 °C
22,COc1ccc(-n2nc(C(C)C)cc2-c2ccc(OCCNC(N)=O)cc2)cn1,106 to 107 °C
23,CCOC(=O)CSC1=CC(=NS(=O)(=O)c2cccs2)c2ccccc2C1=O,110 to 112 °C
24,CCCCCC(CC(=O)Nc1cc(C(N)=O)ccc1C(C)(C)C)c1cccc(OC)c1O (centres undefined),118 to 121 °C
25,CCOC(=O)Cc1nn(Cc2ccc(Br)c(Cl)c2)c(=S)c2ccccc12,124 to 126 °C

row,Compound,melting point
1,COC(=O)c1cc2c3ccccc3n(-c3ccccc3)c2s1,147 to 149 °C
2,O=c1c2c(Cc3ccsc3)n[nH]c2c2cccnc2n1-c1cccc(OC(F)(F)F)c1,247 to 251 °C
3,CCN(CC)C(=O)c1ccc(Cl)c(C2(C)C(=O)N(Cc3ccc(OC)cc3OC)c3ccccc32)c1 (centres undefined),172 °C
4,Fc1ncccc1-c1cscc1Br,48 to 50 °C
5,C=COCCN1C(=O)CN(C)C1=O,54 to 56 °C
6,O=C(O)Cc1ccc2c(c1)C(O)c1ccccc1CO2 (centres undefined),132 to 134 °C
7,O=C(O)CN1C(=O)c2cccc([N+](=O)[O-])c2C1=O,200 to 202 °C
8,C=CCN1Cc2nc3c(cnn3C=C)c(N)c2C1=O,190 to 191 °C
9,O=C(Nc1cc(Cl)c(N2CCCC2)c(Cl)c1)c1ccc(F)c(OCc2cccnc2)c1,163 to 167 °C
10,CCCc1c(OCCCCCOc2ccc3ccc(OCC(=O)O)cc3c2C(C)=O)ccc(C(C)=O)c1O,103 to 106 °C
11,COC(=O)N(c1cc(C)ccc1C#N)C(C)C,100 to 101 °C
12,OCCCCCCOc1ccc2ccccc2c1,53 to 56 °C
13,C=C(c1cccnc1)c1c(CC(=O)OC)[nH]c2ccccc12,154 to 157 °C
14,Cn1nc(-c2ncc(Cl)cc2F)cc1Br,110 to 111 °C
15,COc1ccc(CN(C)CCCOc2ccc(NC(=O)c3cccc4c(=O)c5cccc(F)c5[nH]c34)c(C)c2)cc1OC,130 °C
16,Clc1nc(-c2ccc3c(c2)CCO3)nc2ccccc12,186 to 192 °C
17,Cc1c(S(=O)(=O)c2ccc(=O)[nH]n2)oc2cc(Cl)ccc12,> 240 °C
18,CC(C)(C)c1ccc(C2=NC[C@@H](OC(=O)Nc3ccccc3)[C@H](c3ccccc3)O2)cc1 (racemic),80 °C
19,O=C(O)Cc1ccccc1SCc1ccc(Cl)cc1,149 to 151 °C
20,O=C1c2ccccc2C(=O)N1Cc1ccc(/C=C/C(c2cc(Cl)c(Cl)c(Cl)c2)C(F)(F)F)c2ccccc12 (centres undefined),158 to 160 °C
21,CCc1cc2c(c3ccc(O)cc13)OCc1cc(O)ccc1-2,184 to 192 °C
22,Cc1cnc2c(c1)C(=O)CC(C)(C)C2,232 to 235 °C
23,O=C1c2c(Cl)cccc2-n2cnc(CO)c2C2CCCN12 (centres undefined),303 to 305 °C
24,Cn1c(CNCC2CCOC2)cc2cc(NC(=O)c3ccc(OCC4CCOC4)cc3)ccc21 (centres undefined),131 to 133 °C
25,O=C1c2c(Cl)c(Cl)c(Cl)c(Cl)c2C(=O)N1c1ccccc1,251 to 253 °C

row,Compound,melting point
1,CCOCc1nc2c(N)nc3cc(OCc4nc5ccccc5s4)ccc3c2n1CC(C)(C)NS(C)(=O)=O,258 to 259 °C
2,CC(=O)c1ccc2nc(NC(=O)c3ccc(C(C)(C)C)cc3)cn2n1,237 to 238 °C
3,Fc1cccnc1C#CCCc1nc2ccccc2o1,86 to 88 °C
4,CCC(CC)N(C)Cc1ccc(NC(=O)C2=Cc3cc(-c4ccc(C)cc4)ccc3SCC2)cc1,136 to 137 °C
5,Nc1nccc(-c2ccccc2OCC(O)CN2CCN(c3ccc(Cl)cc3)CC2)n1 (centres undefined),159 to 160 °C
6,CCOC(=O)C(C#N)=Cc1cccc(C(F)(F)F)c1Cl,50 °C
7,NC1C(=O)Nc2ccccc2SC1Cc1ccccc1 (centres undefined),223 to 224 °C
8,CC(C)(C)OC(=O)NCCc1ccc(OCCC2Oc3ccccc3N(Cc3ccccc3Cl)C2=O)cc1 (centres undefined),108 to 111 °C
9,COc1ccc(CON(Cc2ccccc2)S(C)(=O)=O)cc1,85 to 87 °C
10,CNC(=O)OCc1c(COC(=O)NC)c(-c2ccc(OC)cc2)n2c1Cc1cc(OC)ccc1-2,110 to 112 °C
11,CCCCCC(=O)NCCc1ccc(S(=O)(=O)NC(=O)c2ccc(C(=O)NCC(=O)OC)nc2)cc1,128 to 130 °C
12,CC(C)(C)[Si](OCCOc1ccc([N+](=O)[O-])cn1)(c1ccccc1)c1ccccc1,63 to 64 °C
13,O=S(=O)(NCCCCOc1ccc(-c2ccncn2)cc1)c1ccc(Br)cc1,131 to 133 °C
14,Nc1cc(C(c2cc(F)ccc2F)S(=O)(=O)c2ccc(Cl)cc2)c(Cl)cn1 (centres undefined),147 to 150 °C
15,C[Si](C)(C)CCCOc1ccc(O)c(C(=O)O)c1,115 to 116 °C
16,CS(=O)(=O)CCCCCn1c(C(F)(F)F)nc2c(N)nc3ccccc3c21,192 to 195 °C
17,Cc1ccc(COc2cc(C(O)C#Cc3ccc(C(=O)O)cc3)cc3c2C(C)(C)CCC3(C)C)cc1 (centres undefined),219 °C
18,COCCOC(=O)c1ccc(C(C(N)=O)C(C)c2ccccc2N2CCCCC2)cc1 (centres undefined),155 to 157 °C
19,CCCNC(=O)C(Cc1ccc2c(c1)c(Cc1ccc(C(=O)OC)cc1OC)cn2CCC)C(C)C (centres undefined),123 to 125 °C
20,O=C(Cc1cccc(O)c1)NNC(=O)c1ccc(O)c([N+](=O)[O-])c1,190 to 193 °C
21,N#CCC(CC#N)c1cccc(OCc2ccccc2)c1,140 to 143 °C
22,CC(C)c1ccc(N(CC(=O)N2CCOCC2)C(=O)C2CCCc3ccccc32)cc1 (centres undefined),180 °C
23,COC(=O)C(C)(Cc1c[nH]c2ccc(OC)cc12)[N+](=O)[O-] (racemic),109 to 110 °C
24,COc1cccc2c1-c1ccc3c(c1C(O)O2)C(C)=CC(C)(C)N3 (centres undefined),184 to 185 °C
25,CCCOc1ccccc1-c1nc2nc(NCCCS(C)(=O)=O)ncc2c(=O)[nH]1,222 to 223 °C

row,Compound,melting point
1,Oc1ccc(CBr)cc1-n1nc2ccccc2n1,169 to 171 °C
2,COc1cc2ncnc(N3CCN(C(=S)Nc4cccc(C(C)C)c4)CC3)c2cc1OC,169 to 171 °C
3,COc1cccc(-c2cc(=O)c3c(OC)cc(OC)c(C4=CCN(C)CC4)c3o2)c1OC,195 to 196 °C
4,CCCCCCCCCCc1ccc2c(c1)C(=O)C(=COC(=O)c1ccccc1)CC2,64 to 66 °C
5,O=c1oc(=Cc2ccccc2)c(=Cc2ccccc2)o1,115 °C
6,CC(=O)Nc1ccc(C(=O)Oc2ccccc2)c(Cl)c1,84 to 86 °C
7,Cc1cc2nc(-c3cccnc3N)n(-c3ccc(CC(=O)Nc4ccc5ncccc5c4)cc3)c2nc1-c1cccnc1,176 to 178 °C
8,CCN(C1CC(C)(C)Oc2ccc(OCCO)cc21)S(C)(=O)=O (centres undefined),76 to 78 °C
9,CCCCC#CCCOc1cc(C=O)ccc1OC,42 to 43 °C
10,C=CC(=O)c1c(-c2ccccc2)[nH]c2ccccc12,145 to 146 °C
11,CCCCCCC#Cc1ccc(/C=C(/C(=O)O)C(=O)OCC)o1,89 to 90 °C
12,CCCCCCCCCCCCCCCCNc1ccc(C(=O)OCC(C)O)cc1 (centres undefined),91 to 93 °C
13,Cc1ccccc1Nc1nc(NCCc2ccccc2)nc2ccccc12,95 to 96 °C
14,CCC/C(=C\C#N)c1ccc2c(c1)C(CC)(CC)OC(=O)N2,121 to 124 °C
15,Cc1c(NC(=O)c2ccc(OCc3ccccc3)cc2)ccc2cc(CN3CCCCC3)cnc12,186 to 187 °C
16,CC1OOC2CC1CC(=O)C2C (centres undefined),160 °C
17,CSc1ccc(C(C)=Cc2ccc3ccccc3c2)cc1,161 °C
18,CCN1CC(=O)N(c2ccc3ccccc3c2)C1=S,156 to 159 °C
19,N#Cc1cc(-c2ccccc2)c(C(=O)O)cn1,270 to 272 °C
20,Cc1ccc2[nH]c3c(N)nn(C)c3c(=O)c2c1,> 300 °C
21,CC1(C)C(C=C(F)C(=O)O)C1C(=O)OCc1ccccc1 (centres undefined),88 °C
22,Cc1ccc(C(=O)c2ccc(Cc3ccc(NS(C)(=O)=O)cc3C#N)n2C)cc1,171 to 172 °C
23,O=CNC1=NN(c2ccccn2)CC1,182 to 183 °C
24,Cc1c(C)c2c(c(C)c1NC(=O)C(=O)C(C)(C)C)C(c1ccc(C(C)C)cc1)CO2 (centres undefined),142 to 143 °C
